From patent US7060486B2, “Inhibition of sulfate-reducing-bacteria-mediated degradation using bacteria which secrete antimicrobials” (priority 1998, dated 2006)
Entries after “also recorded” stand apart in the source; their conditions may differ. Bridge positions count the residues as written; N and C are the ends. Square brackets hold non-standard residues; d marks the D form. Peptide text beside a SMILES is read from it. * marks the point of attachment. X1 = CC[C@H](C)CCCCC(=O)*; Dab = NCC[C@H](N)C(=O)O

Key:
D. vulgaris (ATCC 29579) = test: SRB inhibitory assay: viability after one-hour exposure, MPN technique; assay type: cell-based; conditions: one-hour exposure
Method: (§1) D. vulgaris (ATCC 29579) and D. gigas (ATCC 19364) were obtained from the American Type Culture Collection and cultivated in 15 mL screwcap tubes with 10 mL of modified Baar's medium (ATCC medium 1249) supplemented with 100 μL each of the oxygen-scavengers 4% sodium sulfide and Oxyrase (Oxyrase Inc., Mansfeld, Ohio). Initial cultures were grown from −85° C. glycerol stocks; all subsequent cultures were grown with a 3% inoculum from the initial culture maintained at 30° C. without shaking. […] SRB were also cultured periodically in the presence of 0.1% ferrous ammonium sulfate, and the presence of these sulfate-reducers was confirmed by the detection of black iron sulfide in the culture tubes. The desulfoviridin assay was also performed after each MPN assay to confirm the presence of D. vulgaris or D. gigas by its red color under UV light due to the release of the chromophore of the pignment desulfoviridin. (Postgate, 1984).
(§2) For determining the viability indices (Romeo, et al., 1988) of SRB, a late-exponential phase culture (O.D600 0.16 to 0.19 which corresponded to an initial cell number of 5–9×10^4 cells/mL) was exposed to various concentrations of antimicrobials for 1 hour at 30° C. One mL of cells was harvested, washed once in fresh modified Baar's medium to remove cellular debris, and resuspended in 1 mL of fresh modified Baar's medium supplemented with 10 μL each of Oxyrase (Oxyrase Inc., Mansfeld, Ohio) and 4% sodium sulphide. Aliquots of 450 μL were dispensed in 500 μL sterile eppendorf tubes and appropriate amounts of antimicrobials added and incubated at 30° C. The effectiveness of treatment was determined by the multiple-tube most-probable-number (MPN) fermentation technique. (Anonymous. Multiple-tube fermentation technique for members of the coliform group, pp. 9–45 to 9–51. In A. E. Greenberg, L. S. Clesceri, and A. D. Eaton (eds.), Standard Methods for the Examination of Water and Wastewater, 18 ed. American Public Health Association, American Water Works Association, and Water Pollution Control Federation, New York (1992)) (hereafter, Greenberg, 1992).
(§3) The MPN test for enumerating SRB was performed in three 12 mL tubes with a 1000 μL inoculum of SRB, three 12 mL tubes with a 500 μL inoculum, and three 12 mL tubes with a 100 μL inoculum. All nine tubes contained a final volume of 10 mL of modified Baar's medium supplemented with 100 μL each of 4% sodium sulfide and Oxyrase (Oxyrase Inc., Mansfeld, Ohio). The tubes were monitored for 72 hours to determine the number of tubes that were positive for growth. Growth was determined by the increase in culture turbidity, and the MPN index/mL was calculated using the Thomas formula. (Greenberg 1992).

[1] = test system: SRB (D. vulgaris) on SAE 1018 mild steel; test: Continuous reactor with SAE 1018 mild steel and SRB, electrochemical impedance spectroscopy
Source text: (§4) A continuous reactor was used to develop biofilms on metal surfaces as previously described (Jayaraman et al., 1997c). Electrochemical impedance spectroscopy (EIS) was used to obtain impedance data in at least duplicate experiments using a Solarton-Schlumberger electrochemical measurement unit (SI 1280, Schlumberger Technical Instruments Division, San Jose, Calif.) interfaced to a Macintosh computer (PowerMac 7100/80, Apple Computers, Cupertino, Calif.) running EISIS electrochemical experimentation software (University of California, Irvine) (THALES, a similar commercial software, can also be used). The open-circuit potential (OCP) was measured as the potential between the metal specimen and the reference electrode (Ag/AgCl), and the polarization resistance was determined as the dc limit of the impedance using the ANALEIS software developed by Mansfeld et al. (ASTM Special Technical Protocol 1154:186 (1992)). Continuous culture corrosion rates were estimated from the experimental polarization resistance Rp based on the Stern-Geary equation Rp=B/Icorr, where B is a parameter depending on the Tafel slopes and icorr is the corrosion current density which can be converted into a corrosion rate using Faraday's law (Mansfeld, F., The polarization resistance technique for measuring corrosion currents, In Fontana, M. G., Staehle, R. W. (ed.), Advances in Corrosion Science and Technology, Plenum Press, New York (1976)).
A 3% (vol/vol) SRB inoculum (culture age 24–48 hours) was added to the reactor after 3 to 5 days of aerobic biofilm development. […] All antimicrobials were simultaneously added to the nutrient feed and the reactor at appropriate concentrations.

P. fragi K = test: Growth of P. fragi K in overnight suspension cultures with antimicrobials; assay type: cell-based; conditions: 100 μg/mL, overnight suspension culture
[2] = test system: SRB (D. vulgaris) on 304 stainless steel; test: Continuous reactor with 304 stainless steel and SRB, electrochemical impedance spectroscopy
Method: Batch culture corrosion experiments using SAE 1018 mild steel coupons (2.5 cm diameter, 1.2 mm thick) were performed in triplicates in 250 mL Erlenmeyer flasks at 30° C. without shaking as described previously (Jayaraman et al., 1997a). A continuous reactor (Jayaraman et al., 1997c) was also used to develop biofilms on 304 stainless steel and monitor corrosion using electrochemical impedance spectroscopy (EIS) in a minimum of two independent reactors using a Solarton-Schlumberger electrochemical measurement unit (SI 1280, Schlumberger Technical Instruments Division, San Jose, Calif.) interfaced to a Macintosh computer (PowerMac 7100/80, Apple Computers, Cupertino, Calif.) running EISIS electrochemical experimentation software (University of California, Irvine) (similar commercial software, THALES, can also be used). The open circuit potential (OCP) was measured as the potential between the metal specimen and a Ag/AgCl reference electrode, and the polarization resistance (Rp) was determined as the low-frequency value of the impedance (where the imaginary part of the impedance was zero or negligible). Continuous culture corrosion rates were estimated as the inverse of the polarization resistance (Macdonald, D. D. and M. C. H. McCubre, Applications of impedance spectroscopy, p. 262–267. In J. R. Macdonald (ed.), Impedance spectroscopy: Emphasizing solid materials and systems, John Wiley & Sons, New York (1987); Stem, M., Journal of Electrochemical Society, 105(11):638–647 (1958)).
as §4, with “Continuous culture corrosion rates were estimated from the experimental polarization resistance Rp based on the Stern-Geary equation Rp=B/Icorr, where B is a parameter depending on the Tafel slopes and icorr is the corrosion current density which can be converted into a corrosion rate using Faraday's law (Mansfeld, F., The polarization resistance technique for measuring corrosion currents, In Fontana, M. G., Staehle, R. W. (ed.), Advances in Corrosion Science and Technology, Plenum Press, New York (1976)).” left out

D. vulgaris [3] = conditions: literature (Saleh 1964/Postgate 1984; Odom and Singleton 1993), suspension cultures; cited from earlier work
D. vulgaris [4] = test: Susceptibility of SRB cultures to antibiotics and inorganics; assay type: cell-based
Method: (§5) D. vulgaris and D. gigas were incubated in the presence of various antimicrobial peptides, and their viability after one-hour exposure was determined. […] D. gigas was inhibited by anthraquinone at 100 μg/mL (Cooling et al., 1996), and both SRB were inhibited by sodium molybdate at 100 μg/mL. This is similar to the observation of Saleh, et al., 1964, who surveyed nearly 200 compounds for their SRB-inhibitory activity and noted that SRB show a high degree of resistance to inhibitory compounds (Id.).

D. gigas = test: as above; assay type: cell-based
Method: as §5

Escherichia coli = conditions: 100 μg/mL; cited from earlier work
B. polymyxa 10401 = test: Susceptibility of host strains to purified antimicrobials (plate counts); assay type: cell-based; conditions: 50 μg/mL, one hour exposure at 30° C.
Method: (§6) To determine the susceptibility of the hosts B. subtilis BE1500 and B. polymyxa to the expressed antimicrobials, these strains were grown from a single colony in 25 mL of LB medium with shaking at 37° C. to an O.D600 of 0.40–0.45. One mL aliquots were collected, washed with fresh LB medium and resuspended in 100 μL fresh LB medium in sterile eppendorf tubes. The antimicrobials indolicidin and bactenecin were added (50–100 μg/mL) and the tubes were incubated at 30° C. for one hour without shaking. Appropriate dilutions were spread on LB agar plates and incubated overnight at 37° C. to determine the extent of survival. The results were confirmed by performing two independent experiments.

B. subtilis BE1500 = test: as above; assay type: cell-based
Method: as §6

B. subtilis WB600 = test: as above; assay type: cell-based; conditions: 50 μg/mL, one hour exposure at 30° C.
D. gigas (ATCC 19364) = test: SRB inhibitory assay: viability after one-hour exposure, MPN technique; assay type: cell-based; conditions: 100 μg/mL, one-hour exposure
Method: as §1, §2, §3

[5] = 100 μg/mL added to P. fragi K biofilm 24 hours before D. vulgaris
[6] = 100 μg/mL added to P. fragi K biofilm before D. vulgaris

Molecule: CC[C@H](C)[C@H](N)C(=O)N[C@@H](CC(C)C)C(=O)N1CCC[C@H]1C(=O)N[C@@H](Cc1c[nH]c2ccccc12)C(=O)N[C@@H](CCCCN)C(=O)N[C@@H](Cc1c[nH]c2ccccc12)C(=O)N1CCC[C@H]1C(=O)N[C@@H](Cc1c[nH]c2ccccc12)C(=O)N[C@@H](Cc1c[nH]c2ccccc12)C(=O)N1CCC[C@H]1C(=O)N[C@@H](Cc1c[nH]c2ccccc12)C(=O)N[C@@H](CCCN=C(N)N)C(=O)N[C@@H](CCCN=C(N)N)C(N)=O [Ind-NH2, indolicidin]
- reduction of viability (D. vulgaris (ATCC 29579); 25 μg/mL, late-exponential-phase culture): 99.3%

Molecule: CC1(C)S[C@@H]2[C@H](NC(=O)[C@H](N)c3ccccc3)C(=O)N2[C@H]1C(=O)O [ampicillin]
- effect on D. vulgaris, in words [1, 5]: completely inhibited
- time after D. vulgaris addition without change / increase in Rp [1, 6]: ≥ 100 h
- effect on SRB, in words ([1]; antimicrobial added after SRB growth on mild steel): did not change Rp; also recorded: no inhibition of SRB
- time to onset of SRB-induced corrosion after ampicillin containing medium was discontinued ([1]; mild steel reactors): ≤ 36 h
- growth of P. fragi K, in words (P. fragi K): grew to saturation
- effect on D. vulgaris, in words [2, 5]: completely inhibited
- time after D. vulgaris addition without change in impedance spectra and Rp [2, 6]: ≥ 100 h
- effect on SRB, in words ([2]; antimicrobial added to dual-culture reactor after SRB, ampicillin 200 μg/mL, chloramphenicol 100 μg/mL, ammonium molybdate 200 μg/mL): SRB had not been killed
- concentration that inhibits D. vulgaris (D. vulgaris [3]): 1 µg/mL
- concentration that inhibits the strain (D. vulgaris [4]): 20 µg/mL

Molecule: O=C1c2ccccc2C(=O)c2ccccc21 [anthraquinone]
- concentration that inhibits the strain (D. gigas): 100 µg/mL

Molecule: CC[C@H](C)[C@@H]1NC(=O)[C@H](CCCNC(=N)N)NC(=O)[C@@H](NC(=O)[C@H](CC(C)C)NC(=O)[C@@H](N)CCCNC(=N)N)CSSC[C@@H](C(=O)N[C@@H](CCCNC(=N)N)C(=O)O)NC(=O)[C@H](C(C)C)NC(=O)[C@H](CCCNC(=N)N)NC(=O)[C@H]([C@@H](C)CC)NC(=O)[C@H](C(C)C)NC(=O)[C@H](C(C)C)NC1=O [bactenecin] (H-RLCRIVVIRVCR-OH; disulfide 3-11; N-terminus and C-terminus assumed)
- inhibition (Escherichia coli): 95%
- Fold-reduction in cell number (B. polymyxa 10401): 2
- factor by which the strain is more resistant to bactenecin than to indolicidin (B. subtilis BE1500): 60
- Fold-reduction in cell number (B. subtilis BE1500; 50 μg/mL, one hour exposure at 30° C.): 100
- Fold-reduction in cell number (B. subtilis WB600): 400

Molecule: O=C(N[C@H](CO)[C@H](O)c1ccc([N+](=O)[O-])cc1)C(Cl)Cl [chloramphenicol]
- concentration that inhibits D. vulgaris (D. vulgaris [3]): 3 µg/mL
- concentration that inhibits the strain (D. vulgaris [4]): 20 µg/mL

Molecule: CC[C@H](C)CCCCC(=O)N[C@@H](CCN)C(=O)N[C@H](C(=O)N[C@@H](CCN)C(=O)N[C@H]1CCNC(=O)[C@H]([C@@H](C)O)NC(=O)[C@H](CCN)NC(=O)[C@H](CCN)NC(=O)[C@H](CC(C)C)NC(=O)[C@@H](Cc2ccccc2)NC(=O)[C@H](CCN)NC1=O)[C@@H](C)O [polymyxin B] (X1-[Dab]T[Dab][Dab][Dab][dF]L[Dab][Dab]T; lactam 4-C (inferred); N-terminus assumed)
- concentration that inhibits D. vulgaris (D. vulgaris [3]): 100 µg/mL
- reduction of viability (D. gigas (ATCC 19364)): approximately 90%
- reduction of viability (D. vulgaris (ATCC 29579); 100 μg/mL): approximately 90%

Molecule: [Na+].[Na+].[O]=[Mo](=[O])([O-])[O-] [sodium molybdate]
- concentration that inhibits the strain (D. vulgaris [4]): 100 µg/mL
- concentration that inhibits the strain (D. gigas): 100 µg/mL

Molecule: gramicidin D
- reduction of viability (D. gigas (ATCC 19364)): approximately 90%
- reduction of viability (D. vulgaris (ATCC 29579); 100 μg/mL): approximately 90%
